Values of other authors in PMC9851200, “Multiparameter phenotypic screening for endogenous TFEB and TFE3 translocation identifies novel chemical series modulating lysosome function” (Autophagy, 2022).

Legend:
Design in all cases: method as in original PKIS2 published data
[1] = molecular target: kinases (KINOMEscan panel) (Homo sapiens, UniProt Q52WX2); details: SBK1; Published KINOMEscan; ref original PKIS2 published data; cited from earlier work
[2] = molecular target: kinases (KINOMEscan panel) (Homo sapiens, UniProt Q08345); details: DDR1; Published KINOMEscan; ref original PKIS2 published data; cited from earlier work
[3] = molecular target: kinases (KINOMEscan panel) (Homo sapiens, UniProt Q9P286); details: kinase PAK5; Published KINOMEscan; ref original PKIS2 published data; cited from earlier work
[4] = molecular target: T1, kinases (KINOMEscan panel) (Homo sapiens, UniProt P33981); details: Published KINOMEscan; ref original PKIS2 published data; cited from earlier work
T1 sequence (P33981 1-857): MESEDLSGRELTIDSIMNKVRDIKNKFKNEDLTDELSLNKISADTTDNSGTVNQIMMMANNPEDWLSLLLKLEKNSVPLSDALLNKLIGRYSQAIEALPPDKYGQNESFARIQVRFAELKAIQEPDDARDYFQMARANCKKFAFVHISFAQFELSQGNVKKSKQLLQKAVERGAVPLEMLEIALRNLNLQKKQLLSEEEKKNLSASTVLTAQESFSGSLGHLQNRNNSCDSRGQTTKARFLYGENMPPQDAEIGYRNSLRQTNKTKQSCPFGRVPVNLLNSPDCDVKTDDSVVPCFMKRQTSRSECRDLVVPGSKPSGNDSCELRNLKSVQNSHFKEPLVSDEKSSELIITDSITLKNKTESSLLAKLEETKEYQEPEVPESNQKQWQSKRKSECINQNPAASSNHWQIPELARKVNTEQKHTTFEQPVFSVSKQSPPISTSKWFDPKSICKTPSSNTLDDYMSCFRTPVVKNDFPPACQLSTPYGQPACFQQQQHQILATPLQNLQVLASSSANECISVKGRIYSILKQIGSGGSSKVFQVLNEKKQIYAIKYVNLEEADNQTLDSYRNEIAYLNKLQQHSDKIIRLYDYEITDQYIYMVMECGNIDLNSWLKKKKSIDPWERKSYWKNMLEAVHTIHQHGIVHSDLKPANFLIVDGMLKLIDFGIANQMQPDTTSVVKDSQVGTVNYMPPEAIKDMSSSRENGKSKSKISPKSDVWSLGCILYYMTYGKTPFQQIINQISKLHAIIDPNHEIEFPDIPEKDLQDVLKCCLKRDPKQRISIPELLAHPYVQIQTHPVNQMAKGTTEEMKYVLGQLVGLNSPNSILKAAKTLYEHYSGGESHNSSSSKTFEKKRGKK

[5] = molecular target: kinases (KINOMEscan panel) (Homo sapiens, UniProt Q13705); details: kinase ACVR2B; Published KINOMEscan; ref original PKIS2 published data; cited from earlier work
[6] = molecular target: kinases (KINOMEscan panel) (Homo sapiens, UniProt Q9UPE1); details: SRPK3; Published KINOMEscan; ref original PKIS2 published data; cited from earlier work
[7] = molecular target: kinases (KINOMEscan panel) (Homo sapiens, UniProt Q9P1W9); details: PIM2; Published KINOMEscan; ref original PKIS2 published data; cited from earlier work
[8] = molecular target: kinases (KINOMEscan panel) (Homo sapiens, UniProt Q9BWU1); details: kinase CDK19; Published KINOMEscan; ref original PKIS2 published data; cited from earlier work
[9] = molecular target: kinases (KINOMEscan panel) (Homo sapiens, UniProt Q14012); details: CAMK1; Published KINOMEscan; ref original PKIS2 published data; cited from earlier work
[10] = molecular target: T2, kinases (KINOMEscan panel) (Homo sapiens, UniProt Q06418); details: Published KINOMEscan; ref original PKIS2 published data; cited from earlier work
T2 sequence (Q06418 41-890): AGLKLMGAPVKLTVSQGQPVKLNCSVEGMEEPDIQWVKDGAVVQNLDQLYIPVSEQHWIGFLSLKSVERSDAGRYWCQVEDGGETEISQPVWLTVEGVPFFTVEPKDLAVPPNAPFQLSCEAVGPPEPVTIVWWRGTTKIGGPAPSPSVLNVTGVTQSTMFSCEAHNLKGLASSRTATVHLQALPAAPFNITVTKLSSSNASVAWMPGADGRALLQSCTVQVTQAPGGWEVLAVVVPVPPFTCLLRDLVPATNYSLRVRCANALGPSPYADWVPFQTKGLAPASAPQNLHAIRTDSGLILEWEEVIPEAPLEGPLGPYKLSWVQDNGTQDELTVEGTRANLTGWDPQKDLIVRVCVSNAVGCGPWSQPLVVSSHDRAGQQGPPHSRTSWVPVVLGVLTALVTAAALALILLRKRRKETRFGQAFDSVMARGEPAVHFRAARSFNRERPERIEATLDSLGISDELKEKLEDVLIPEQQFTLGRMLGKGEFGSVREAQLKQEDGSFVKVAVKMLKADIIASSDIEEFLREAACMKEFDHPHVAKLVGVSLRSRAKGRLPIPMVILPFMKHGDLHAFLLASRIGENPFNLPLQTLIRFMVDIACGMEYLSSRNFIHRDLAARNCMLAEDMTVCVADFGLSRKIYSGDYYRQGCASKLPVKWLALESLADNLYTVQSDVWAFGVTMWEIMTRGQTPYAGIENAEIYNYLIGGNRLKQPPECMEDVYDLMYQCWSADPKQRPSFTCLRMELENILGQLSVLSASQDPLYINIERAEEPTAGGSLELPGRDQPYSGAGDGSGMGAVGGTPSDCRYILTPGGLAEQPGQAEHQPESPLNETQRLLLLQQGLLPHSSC

[11] = molecular target: kinases (KINOMEscan panel) (Homo sapiens, UniProt Q2M2I8); details: AAK1; Published KINOMEscan; ref original PKIS2 published data; cited from earlier work
[12] = molecular target: kinases (KINOMEscan panel) (Homo sapiens, UniProt Q14680); details: kinase MELK; Published KINOMEscan; ref original PKIS2 published data; cited from earlier work
kinases (KINOMEscan panel) (Homo sapiens, UniProt Q14680), sequence (Q14680 whole entry): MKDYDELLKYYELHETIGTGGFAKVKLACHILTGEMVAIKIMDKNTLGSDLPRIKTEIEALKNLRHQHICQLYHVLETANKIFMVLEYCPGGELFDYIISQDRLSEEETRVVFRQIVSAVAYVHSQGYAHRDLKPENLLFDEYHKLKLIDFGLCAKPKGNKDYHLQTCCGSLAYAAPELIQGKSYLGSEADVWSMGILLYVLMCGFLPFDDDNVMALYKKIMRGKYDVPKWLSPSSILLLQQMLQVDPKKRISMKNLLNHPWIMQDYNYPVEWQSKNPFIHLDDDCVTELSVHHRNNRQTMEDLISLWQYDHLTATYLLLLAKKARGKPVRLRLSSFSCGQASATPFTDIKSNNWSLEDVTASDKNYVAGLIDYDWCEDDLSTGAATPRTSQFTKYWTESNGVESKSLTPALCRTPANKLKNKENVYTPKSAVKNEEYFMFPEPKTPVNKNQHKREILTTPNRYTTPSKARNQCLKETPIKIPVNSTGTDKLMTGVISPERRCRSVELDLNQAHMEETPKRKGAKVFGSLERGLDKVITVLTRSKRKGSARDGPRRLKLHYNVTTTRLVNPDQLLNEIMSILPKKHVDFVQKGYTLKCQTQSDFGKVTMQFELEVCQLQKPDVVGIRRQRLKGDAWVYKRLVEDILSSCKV

kinases (KINOMEscan panel) (Homo sapiens, UniProt Q9UPE1), sequence (Q9UPE1 whole entry): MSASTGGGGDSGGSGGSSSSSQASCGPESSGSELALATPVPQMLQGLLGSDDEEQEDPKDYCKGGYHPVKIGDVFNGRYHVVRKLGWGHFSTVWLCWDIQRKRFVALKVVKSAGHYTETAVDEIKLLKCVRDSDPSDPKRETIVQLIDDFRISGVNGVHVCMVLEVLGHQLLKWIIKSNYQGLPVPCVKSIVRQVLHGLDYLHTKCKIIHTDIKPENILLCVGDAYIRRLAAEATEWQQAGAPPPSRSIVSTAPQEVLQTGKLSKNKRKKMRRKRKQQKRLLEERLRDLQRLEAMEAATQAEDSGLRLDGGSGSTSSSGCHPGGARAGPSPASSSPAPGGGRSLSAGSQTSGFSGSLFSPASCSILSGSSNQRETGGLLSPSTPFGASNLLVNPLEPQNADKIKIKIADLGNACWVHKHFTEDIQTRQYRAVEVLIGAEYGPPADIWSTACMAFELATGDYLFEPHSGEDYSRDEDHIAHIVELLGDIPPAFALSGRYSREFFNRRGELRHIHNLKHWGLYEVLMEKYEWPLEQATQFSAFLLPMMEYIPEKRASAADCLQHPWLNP
kinases (KINOMEscan panel) (Homo sapiens, UniProt Q9BWU1), sequence (Q9BWU1 whole entry): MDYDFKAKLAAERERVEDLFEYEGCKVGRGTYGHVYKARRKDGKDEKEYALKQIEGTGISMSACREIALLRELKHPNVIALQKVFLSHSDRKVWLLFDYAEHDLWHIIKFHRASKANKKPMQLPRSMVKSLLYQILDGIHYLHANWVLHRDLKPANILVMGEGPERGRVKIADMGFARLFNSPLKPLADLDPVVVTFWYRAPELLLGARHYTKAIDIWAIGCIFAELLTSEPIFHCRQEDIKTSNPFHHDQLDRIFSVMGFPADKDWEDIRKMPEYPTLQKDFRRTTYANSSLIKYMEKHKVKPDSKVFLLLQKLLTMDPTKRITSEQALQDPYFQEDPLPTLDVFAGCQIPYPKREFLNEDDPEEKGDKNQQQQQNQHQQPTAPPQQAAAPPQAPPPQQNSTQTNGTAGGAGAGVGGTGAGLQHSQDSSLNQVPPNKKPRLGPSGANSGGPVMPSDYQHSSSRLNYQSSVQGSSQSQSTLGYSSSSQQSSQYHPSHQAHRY
kinases (KINOMEscan panel) (Homo sapiens, UniProt Q2M2I8), sequence (Q2M2I8 whole entry): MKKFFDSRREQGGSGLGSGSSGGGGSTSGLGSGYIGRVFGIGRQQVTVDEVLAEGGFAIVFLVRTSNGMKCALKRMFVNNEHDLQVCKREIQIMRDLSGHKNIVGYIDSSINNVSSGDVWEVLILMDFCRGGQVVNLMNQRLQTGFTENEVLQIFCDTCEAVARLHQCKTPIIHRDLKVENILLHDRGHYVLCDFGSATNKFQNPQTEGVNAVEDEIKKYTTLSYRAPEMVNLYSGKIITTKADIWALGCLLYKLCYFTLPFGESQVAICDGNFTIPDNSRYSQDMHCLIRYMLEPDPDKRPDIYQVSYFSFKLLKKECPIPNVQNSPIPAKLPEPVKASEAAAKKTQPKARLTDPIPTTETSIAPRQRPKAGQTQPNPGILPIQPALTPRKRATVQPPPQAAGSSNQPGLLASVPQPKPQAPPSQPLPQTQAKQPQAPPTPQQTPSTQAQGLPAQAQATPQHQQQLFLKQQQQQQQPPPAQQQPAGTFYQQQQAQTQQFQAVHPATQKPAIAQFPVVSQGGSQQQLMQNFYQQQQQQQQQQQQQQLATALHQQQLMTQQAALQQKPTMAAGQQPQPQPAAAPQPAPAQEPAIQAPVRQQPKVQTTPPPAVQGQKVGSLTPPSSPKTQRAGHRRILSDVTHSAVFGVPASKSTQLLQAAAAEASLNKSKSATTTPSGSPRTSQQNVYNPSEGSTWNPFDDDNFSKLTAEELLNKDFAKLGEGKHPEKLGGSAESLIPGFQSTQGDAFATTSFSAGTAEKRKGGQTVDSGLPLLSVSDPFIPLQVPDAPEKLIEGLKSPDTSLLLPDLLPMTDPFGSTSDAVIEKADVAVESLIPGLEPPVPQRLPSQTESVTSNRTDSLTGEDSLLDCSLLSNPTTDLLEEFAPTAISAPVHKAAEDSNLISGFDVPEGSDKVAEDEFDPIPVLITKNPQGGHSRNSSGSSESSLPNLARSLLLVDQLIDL
kinases (KINOMEscan panel) (Homo sapiens, UniProt Q08345), sequence (Q08345 19-913): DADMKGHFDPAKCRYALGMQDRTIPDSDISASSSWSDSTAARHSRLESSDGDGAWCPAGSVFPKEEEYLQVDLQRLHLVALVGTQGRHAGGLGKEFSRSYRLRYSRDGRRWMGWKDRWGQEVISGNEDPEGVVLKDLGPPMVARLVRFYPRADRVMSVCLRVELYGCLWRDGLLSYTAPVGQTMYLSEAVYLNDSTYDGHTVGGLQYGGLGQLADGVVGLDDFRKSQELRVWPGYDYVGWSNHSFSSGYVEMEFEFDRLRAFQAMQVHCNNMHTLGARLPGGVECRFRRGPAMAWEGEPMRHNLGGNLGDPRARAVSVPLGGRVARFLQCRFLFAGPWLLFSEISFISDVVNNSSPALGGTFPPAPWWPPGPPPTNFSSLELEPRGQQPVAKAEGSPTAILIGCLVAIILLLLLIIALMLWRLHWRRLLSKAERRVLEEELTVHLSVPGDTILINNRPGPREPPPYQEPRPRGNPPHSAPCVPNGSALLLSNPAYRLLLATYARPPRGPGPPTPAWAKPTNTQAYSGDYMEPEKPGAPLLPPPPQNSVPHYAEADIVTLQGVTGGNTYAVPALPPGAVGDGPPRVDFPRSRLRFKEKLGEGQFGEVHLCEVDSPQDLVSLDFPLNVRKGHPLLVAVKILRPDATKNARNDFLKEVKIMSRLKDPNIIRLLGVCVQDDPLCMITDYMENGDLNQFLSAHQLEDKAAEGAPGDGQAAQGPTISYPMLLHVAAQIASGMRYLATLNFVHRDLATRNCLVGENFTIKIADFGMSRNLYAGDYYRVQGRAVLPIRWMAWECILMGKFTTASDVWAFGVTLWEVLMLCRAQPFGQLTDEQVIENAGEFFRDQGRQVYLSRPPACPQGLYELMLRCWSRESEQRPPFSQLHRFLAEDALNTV
kinases (KINOMEscan panel) (Homo sapiens, UniProt Q9P286), sequence (Q9P286 whole entry): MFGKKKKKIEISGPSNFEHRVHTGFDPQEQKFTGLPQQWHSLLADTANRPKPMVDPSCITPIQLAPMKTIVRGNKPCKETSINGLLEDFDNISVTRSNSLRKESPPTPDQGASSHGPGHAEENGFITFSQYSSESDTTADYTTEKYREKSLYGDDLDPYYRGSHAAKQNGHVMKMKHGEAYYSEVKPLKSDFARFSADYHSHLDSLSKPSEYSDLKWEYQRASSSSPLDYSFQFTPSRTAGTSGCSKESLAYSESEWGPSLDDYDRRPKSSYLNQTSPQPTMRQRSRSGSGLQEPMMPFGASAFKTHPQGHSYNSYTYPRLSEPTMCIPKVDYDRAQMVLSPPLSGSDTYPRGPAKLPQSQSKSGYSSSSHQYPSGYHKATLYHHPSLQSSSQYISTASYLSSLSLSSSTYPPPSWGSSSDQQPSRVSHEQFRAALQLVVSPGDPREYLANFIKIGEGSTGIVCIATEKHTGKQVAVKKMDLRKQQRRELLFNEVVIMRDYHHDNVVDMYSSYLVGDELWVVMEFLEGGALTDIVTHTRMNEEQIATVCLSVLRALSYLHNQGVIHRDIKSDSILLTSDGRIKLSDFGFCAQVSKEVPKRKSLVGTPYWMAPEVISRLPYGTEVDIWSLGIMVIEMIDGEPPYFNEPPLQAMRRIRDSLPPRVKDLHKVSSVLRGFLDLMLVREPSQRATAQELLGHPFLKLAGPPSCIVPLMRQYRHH
kinases (KINOMEscan panel) (Homo sapiens, UniProt Q14012), sequence (Q14012 whole entry): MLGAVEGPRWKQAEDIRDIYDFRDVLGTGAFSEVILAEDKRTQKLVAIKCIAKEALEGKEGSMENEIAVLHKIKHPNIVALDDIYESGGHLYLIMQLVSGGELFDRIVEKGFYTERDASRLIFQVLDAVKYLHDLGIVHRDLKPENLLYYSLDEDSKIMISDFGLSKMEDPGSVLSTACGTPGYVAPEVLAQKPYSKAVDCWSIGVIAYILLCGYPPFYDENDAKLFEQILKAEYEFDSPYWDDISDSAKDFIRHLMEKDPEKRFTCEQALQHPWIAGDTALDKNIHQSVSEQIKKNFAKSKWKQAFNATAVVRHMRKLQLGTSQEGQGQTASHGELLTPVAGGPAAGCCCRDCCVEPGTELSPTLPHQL
kinases (KINOMEscan panel) (Homo sapiens, UniProt Q9P1W9), sequence (Q9P1W9 whole entry): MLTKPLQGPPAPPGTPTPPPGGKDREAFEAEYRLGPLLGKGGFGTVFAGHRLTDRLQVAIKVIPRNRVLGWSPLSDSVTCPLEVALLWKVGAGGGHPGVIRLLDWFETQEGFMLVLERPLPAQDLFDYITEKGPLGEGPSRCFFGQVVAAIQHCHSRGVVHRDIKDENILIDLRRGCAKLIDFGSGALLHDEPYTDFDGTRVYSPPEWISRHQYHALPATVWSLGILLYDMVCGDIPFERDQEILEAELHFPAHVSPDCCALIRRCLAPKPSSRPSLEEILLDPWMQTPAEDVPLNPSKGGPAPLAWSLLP

In the case of `Cc1cccc(-c2nc(Nc3ccncc3)c3ccccc3n2)n1` [NK215], the “KINOMEscan SBK1” value [1] is given as 0, the “KINOMEscan DDR1” value [2] is given as 30 and the “KINOMEscan PAK5” value [3] is given as 0. The “KINOMEscan TTK” value [4] was 10, the “KINOMEscan ACVR2B” value [5] was 36 and the “KINOMEscan SRPK3” value [6] was 15. The “KINOMEscan PIM2” value [7] was 18, the “KINOMEscan CDK19” value [8] was 0 and the “KINOMEscan CAMK1” value [9] was 0. For the same compound, the “KINOMEscan TYRO3” value [10] was 0, the “KINOMEscan AAK1” value [11] was 2 and the “KINOMEscan MELK” value [12] was 11.
